According to the supplement of paper PMC13380429:

Columns and labels:
[1] = system: A549-ACE2 infected with SARS-CoV-2; assay: SARS-CoV-2 infection rate relative to DMSO; higher = more infection; conditions: 24 h
A549-ACE2 [2] = assay: phospholipidosis EC50; higher = less potent phospholipidosis inducer
[3] = system: A549-ACE2 infected with SARS-CoV-2; assay: morphology score (similarity to uninfected cells); higher = more like uninfected cells; conditions: 24 h
[4] = system: A549-ACE2 infected with SARS-CoV-2; assay: cell count relative to DMSO; higher = less toxic; conditions: 24 h
A549-ACE2 [5] = assay: drug-induced phospholipidosis relative to tamoxifen; higher = more phospholipidosis
Vero E6 [6] = assay: drug sensitivity score (DSS) for viability; higher = more toxic; extreme values may be limits of the assay; conditions: 72 h
Calu-3 [7] = assay: as above; conditions: 72 h
U2OS [8] = assay: as above; conditions: 72 h
Caco-2 [9] = assay: as above; conditions: 72 h
HepG2 [10] = assay: as above; conditions: 72 h
Vero E6 [11] = assay: cell viability relative to DMSO; higher = less toxic; conditions: 72 h
Calu-3 [12] = assay: as above; conditions: 72 h
U2OS [13] = assay: as above; conditions: 72 h
Caco-2 [14] = assay: as above; conditions: 72 h
HepG2 [15] = assay: as above; conditions: 72 h
Calu-3 [16] = assay: relative viability EC50 (midpoint between 100% and the lowest measured viability); higher = less toxic; conditions: 72 h
U2OS [17] = assay: as above; conditions: 72 h
Caco-2 [18] = assay: as above; conditions: 72 h
HepG2 [19] = assay: as above; conditions: 72 h
Vero E6 [20] = assay: as above; conditions: 72 h

Cc1cc(Nc2ccc(NC(=O)c3ccc(Nc4ccnc5ccccc45)cc3)cc2)nc(N)n1 [SGI-1027]
Conditions	SARS-CoV-2 infection rate [%]	cell count [%]	cell viability [%]	morphology score	phospholipidosis EC50 [nM]
A549-ACE2 [2], 24 h	–	–	–	–	2950
A549-ACE2 [2], 48 h	–	–	–	–	3260
A549-ACE2 [2], 72 h	–	–	–	–	3610
Caco-2 [14], 1 nM	–	–	103	–	–
Caco-2 [14], 10 nM	–	–	114	–	–
Caco-2 [14], 100 nM	–	–	103	–	–
Caco-2 [14], 1000 nM	–	–	99.4	–	–
Caco-2 [14], 10000 nM	–	–	13.1	–	–
Calu-3 [12], 1 nM	–	–	106	–	–
Calu-3 [12], 10 nM	–	–	109	–	–
Calu-3 [12], 100 nM	–	–	112	–	–
Calu-3 [12], 1000 nM	–	–	106	–	–
Calu-3 [12], 10000 nM	–	–	2.8	–	–
HepG2 [15], 1 nM	–	–	110	–	–
HepG2 [15], 10 nM	–	–	108	–	–
HepG2 [15], 100 nM	–	–	104	–	–
HepG2 [15], 1000 nM	–	–	39.5	–	–
HepG2 [15], 10000 nM	–	–	-0.3	–	–
U2OS [13], 1 nM	–	–	98.1	–	–
U2OS [13], 10 nM	–	–	104	–	–
U2OS [13], 100 nM	–	–	103	–	–
U2OS [13], 1000 nM	–	–	104	–	–
U2OS [13], 10000 nM	–	–	1	–	–
Vero E6 [11], 1 nM	–	–	96.9	–	–
Vero E6 [11], 10 nM	–	–	99	–	–
Vero E6 [11], 100 nM	–	–	94.7	–	–
Vero E6 [11], 1000 nM	–	–	96.6	–	–
Vero E6 [11], 10000 nM	–	–	63.9	–	–
[1], 0.1 µM	91	–	–	–	–
[1], 0.3 µM	101	–	–	–	–
[1], 1 µM	59	–	–	–	–
[1], 3 µM	24	–	–	–	–
[3], 0.1 µM	–	–	–	0.25	–
[3], 0.3 µM	–	–	–	-0.15	–
[3], 1 µM	–	–	–	0.65	–
[3], 3 µM	–	–	–	0.16	–
[4], 0.1 µM	–	106	–	–	–
[4], 0.3 µM	–	95	–	–	–
[4], 1 µM	–	106	–	–	–
[4], 3 µM	–	34	–	–	–

drug-induced phospholipidosis [%], A549-ACE2 [5]
Conditions	0.3 µM	0.833333 µM	3.33333 µM	6.66667 µM
24 h	6.15	4.67	40.2	55.8
48 h	5.31	4.66	44.4	77.3
72 h	4.09	2.03	32.5	76.8

Conditions	drug sensitivity score	relative viability EC50 [nM]
Caco-2 [9]	4.9	–
Caco-2 [18]	–	3120
Calu-3 [7]	5	–
Calu-3 [16]	–	3480
HepG2 [10]	12.6	–
HepG2 [19]	–	844
U2OS [8]	5.2	–
U2OS [17]	–	3390
Vero E6 [6]	2.3	–

Cc1cccc(/C=N/Nc2cc(N3CCOCC3)nc(OCCc3ccccn3)n2)c1 [STA-5326]
Conditions	SARS-CoV-2 infection rate [%]	cell count [%]	cell viability [%]	morphology score	phospholipidosis EC50 [nM]
A549-ACE2 [2], 24 h	–	–	–	–	300
A549-ACE2 [2], 48 h	–	–	–	–	809
A549-ACE2 [2], 72 h	–	–	–	–	687
Caco-2 [14], 1 nM	–	–	91.2	–	–
Caco-2 [14], 10 nM	–	–	96.4	–	–
Caco-2 [14], 100 nM	–	–	94.7	–	–
Caco-2 [14], 1000 nM	–	–	78.9	–	–
Caco-2 [14], 10000 nM	–	–	60.8	–	–
Calu-3 [12], 1 nM	–	–	104	–	–
Calu-3 [12], 10 nM	–	–	104	–	–
Calu-3 [12], 100 nM	–	–	97.9	–	–
Calu-3 [12], 1000 nM	–	–	93.6	–	–
Calu-3 [12], 10000 nM	–	–	90.1	–	–
HepG2 [15], 1 nM	–	–	99.3	–	–
HepG2 [15], 10 nM	–	–	88.2	–	–
HepG2 [15], 100 nM	–	–	93	–	–
HepG2 [15], 1000 nM	–	–	26.2	–	–
HepG2 [15], 10000 nM	–	–	19.7	–	–
U2OS [13], 1 nM	–	–	97.6	–	–
U2OS [13], 10 nM	–	–	100	–	–
U2OS [13], 100 nM	–	–	95	–	–
U2OS [13], 1000 nM	–	–	91.3	–	–
U2OS [13], 10000 nM	–	–	75.1	–	–
Vero E6 [11], 1 nM	–	–	97.2	–	–
Vero E6 [11], 10 nM	–	–	104	–	–
Vero E6 [11], 100 nM	–	–	93.8	–	–
Vero E6 [11], 1000 nM	–	–	42.4	–	–
Vero E6 [11], 10000 nM	–	–	43.2	–	–
[1], 0.3 µM	51	–	–	–	–
[1], 3 µM	77	–	–	–	–
[1], 10 µM	91	–	–	–	–
[1], 30 µM	35	–	–	–	–
[3], 0.3 µM	–	–	–	-0.01	–
[3], 3 µM	–	–	–	-0.14	–
[3], 10 µM	–	–	–	0	–
[3], 30 µM	–	–	–	0.18	–
[4], 0.3 µM	–	104	–	–	–
[4], 3 µM	–	95	–	–	–
[4], 10 µM	–	106	–	–	–
[4], 30 µM	–	108	–	–	–

drug-induced phospholipidosis [%], A549-ACE2 [5]
Conditions	0.3 µM	0.833333 µM	3.33333 µM	6.66667 µM	10 µM	30 µM
24 h	103	105	105	124	111	85.7
48 h	104	80.8	58.2	63.7	66	–
72 h	113	59.5	34.8	46.3	59.3	–

Conditions	drug sensitivity score	relative viability EC50 [nM]
Caco-2 [9]	4.2	–
Calu-3 [7]	0	–
Calu-3 [16]	–	> 10000
HepG2 [10]	14.6	–
HepG2 [19]	–	308
U2OS [8]	1.5	–
U2OS [17]	–	> 10000
Vero E6 [6]	11.6	–
Vero E6 [20]	–	228
